# Source: patent US7268125B2 (Azevan Pharmaceuticals, Inc., priority 2001, dated 2007)
# Target: T1, human V1a receptor (Homo sapiens, UniProt P37288)
# T1 construct: host or cells: CHO cells
# Assay: Human vasopressin V1a receptor binding assay
# Details: hV1a cell line (CHO), competition with 1 nM 3H-AVP, 45 minutes at 37° C.; read-out: V1a BINDING AFFINITY (IC50 (nM))
# Method: Human Vasopression V1a Receptor Binding Assay.
# A cell line expressing the human V1a receptor in CHO cells (henceforth referred to as the hV1a cell line) was obtained from Dr. Michael Brownstein, NIMH, Bethesda, Md., USA. The hV1a cDNA sequence is described by Thibonnier et al., Journal of Biological Chemistry, 269, 3304-3310 (1994), and the expression method was the same as described by Morel et al. (1992). The hV1a cell line was grown in alpha-MEM with 10% fetal bovine serum and 250 ug/ml G418 (Gibco, Grand Island, N.Y., USA). For competitive binding assay, hV1a cells were plated into 6-well culture plate at 1:10 dilution from a confluency flask, and maintained in culture for at least two days. Culture medium was then removed, cells were washed with 2 ml binding buffer (25 mM Hepes, 0.25% BSA, 1×DMEM, PH=7.0). To each well, 990 μl binding buffer containing 1 nM 3H-AVP was added, and followed by 10 μl series diluted Example compounds dissolved in DMSO. […] 100 nM cold AVP (Sigma) was used to assess non-specific binding. Cells were incubated for 45 minutes at 37° C., assay mixture was removed and each well was washed three times with PBS (pH=7.4). 1 ml 2% SDS was added per well and plates were let sit for 30 minutes. The whole content in a well was transferred to a scintillation vial. Each well was rinsed with 0.5 ml PBS which was then added to the corresponding vial. Scintillation fluid (Ecoscint, National Diagnostics, Atlanta, Ga.) was then added at 3 ml per vial. Samples were counted in a liquid scintillation counter (Beckman LS3801). IC50 values were calculated by Prism Curve fitting software.
# All of the alkanedioic esters and amides exemplified in the foregoing examples were tested in this assay described of Example 201.
# T1 sequence (P37288 whole entry): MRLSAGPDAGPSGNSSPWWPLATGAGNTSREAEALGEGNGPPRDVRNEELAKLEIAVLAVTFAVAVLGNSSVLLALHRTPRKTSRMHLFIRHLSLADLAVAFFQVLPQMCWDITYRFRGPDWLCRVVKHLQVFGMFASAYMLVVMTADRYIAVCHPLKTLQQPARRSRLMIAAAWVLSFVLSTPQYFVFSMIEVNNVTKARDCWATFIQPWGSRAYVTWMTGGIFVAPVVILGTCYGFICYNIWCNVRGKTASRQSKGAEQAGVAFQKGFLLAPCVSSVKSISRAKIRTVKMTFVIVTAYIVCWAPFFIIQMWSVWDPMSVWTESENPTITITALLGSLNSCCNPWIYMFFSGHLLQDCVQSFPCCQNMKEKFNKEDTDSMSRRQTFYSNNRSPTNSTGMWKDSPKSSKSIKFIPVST
row,SMILES,IC50 [nM]
1,O=C(NCc1cccc(C(F)(F)F)c1)C(C(=O)N1CCN(C2CCCCC2)CC1)N1C(=O)[C@@H](N2C(=O)OC[C@@H]2c2ccccc2)[C@H]1/C=C/c1ccccc1 (mixture of isomers) [Example 42],< 20
2,O=C(NCc1cccc(C(F)(F)F)c1)[C@H](CC(=O)N1CCN(CCN2CCCC2)CC1)N1C(=O)[C@@H](N2C(=O)OC[C@@H]2c2ccccc2)[C@H]1/C=C/c1ccccc1 [Example 78],< 100
3,"CC(C)(C)OC(=O)C[C@@H](C(=O)NCc1cccc(C(F)(F)F)c1)N1C(=O)[C@@H](N2C(=O)OC[C@@H]2c2ccccc2)[C@H]1/C=C/c1ccccc1 [Example 19, 2(S)-(tert-Butoxycarbonylmethyl)-2-[3(S)-(4(S)-phenyloxazolidin-2-on-3-yl)-4(R)-(2-styryl)azetidin-2-on-1-yl]acetic acid N-(3-trifluoromethylbenzyl)amide]",35
4,CN1CCC(N2CCN(C(=O)CC[C@@H](C(=O)NCc3cccc(C(F)(F)F)c3)N3C(=O)[C@@H](N4C(=O)OC[C@@H]4c4ccccc4)[C@H]3/C=C/c3ccccc3)CC2)CC1 [Example 102],< 100
5,O=C(NCc1cccc(C(F)(F)F)c1)[C@@H](CCC(=O)N1CCN(C2CCCCC2)CC1)N1C(=O)[C@@H](N2C(=O)OC[C@@H]2c2ccccc2)[C@H]1/C=C/c1ccccc1 [Example 139],9.5
6,O=C(NCc1cccc(C(F)(F)F)c1)[C@H](CCC(=O)N1CCN(CC(=O)N2CCCC2)CC1)N1C(=O)[C@@H](N2C(=O)OC[C@@H]2c2ccccc2)[C@H]1/C=C/c1ccccc1 [Example 101],~100
7,"CC(C)(C)OC(=O)CC[C@@H](C(=O)NCc1cccc(C(F)(F)F)c1)N1C(=O)[C@@H](N2C(=O)OC[C@@H]2c2ccccc2)[C@H]1/C=C/c1ccccc1 [Example 20, 2(S)-(tert-Butoxycarbonylethyl)-2-[3(S)-(4(S)-phenyloxazolidin-2-on-3-yl)-4(R)-(2-styryl)azetidin-2-on-1-yl]acetic acid N-(3-trifluoromethylbenzyl)amide]",35
8,O=C(NCc1cccc(C(F)(F)F)c1)[C@H](CC(=O)N1CCN(C2CCCCC2)CC1)N1C(=O)[C@@H](N2C(=O)OC[C@@H]2c2ccccc2)[C@H]1/C=C/c1ccccc1 [Example 66],~50
9,O=C(NCc1cccc(C(F)(F)F)c1)[C@H](CCC(=O)N1CCN(N2CCCC2)CC1)N1C(=O)[C@@H](N2C(=O)OC[C@@H]2c2ccccc2)[C@H]1/C=C/c1ccccc1 [Example 91],3.24
10,O=C(NCc1cccc(C(F)(F)F)c1)[C@H](CC(=O)N1CCN(C2CCCC2)CC1)N1C(=O)[C@@H](N2C(=O)OC[C@@H]2c2ccccc2)[C@H]1/C=C/c1ccccc1 [Example 77],< 100
11,O=C(NCc1cccc(C(F)(F)F)c1)C(C(=O)N1CCC(N2CCCCC2)CC1)N1C(=O)[C@@H](N2C(=O)OC[C@@H]2c2ccccc2)[C@H]1/C=C/c1ccccc1 (mixture of isomers) [Example 37],5.5
12,"CC(C)(C)OC(=O)C(C(=O)NCc1cccc(C(F)(F)F)c1)N1C(=O)[C@@H](N2C(=O)OC[C@@H]2c2ccccc2)[C@H]1/C=C/c1ccccc1 (mixture of isomers) [Example 18, 2(RS)-(tert-Butoxycarbonyl)-2-[3(S)-(4(S)-phenyloxazolidin-2-on-3-yl)-4(R)-(2-styryl)azetidin-2-on-1-yl]acetic acid N-(3-trifluoromethylbenzyl)amide]",35
13,O=C(NCc1cccc(C(F)(F)F)c1)[C@H](CCC(=O)N1CCN(CC2CCCCC2)CC1)N1C(=O)[C@@H](N2C(=O)OC[C@@H]2c2ccccc2)[C@H]1/C=C/c1ccccc1 [Example 120],0.75
14,CC(C)N1CCN(C(=O)C(C(=O)NCc2cccc(C(F)(F)F)c2)N2C(=O)[C@@H](N3C(=O)OC[C@@H]3c3ccccc3)[C@H]2/C=C/c2ccccc2)CC1 (mixture of isomers) [Example 41],< 20
15,O=C(NCc1cccc(C(F)(F)F)c1)[C@H](CCC(=O)N1CCN(CCC2CCCCC2)CC1)N1C(=O)[C@@H](N2C(=O)OC[C@@H]2c2ccccc2)[C@H]1/C=C/c1ccccc1 [Example 111],1.31
16,O=C(NCc1cccc(C(F)(F)F)c1)[C@@H](CCC(=O)N1CCC(N2CCCCC2)CC1)N1C(=O)[C@@H](N2C(=O)OC[C@@H]2c2ccccc2)[C@H]1/C=C/c1ccccc1 [Example 135],~50
17,CCCCN1CCN(C(=O)C(C(=O)NCc2cccc(C(F)(F)F)c2)N2C(=O)[C@@H](N3C(=O)OC[C@@H]3c3ccccc3)[C@H]2/C=C/c2ccccc2)CC1 (mixture of isomers) [Example 40],11
18,O=C(NCc1cccc(C(F)(F)F)c1)[C@H](CCC(=O)N1CCN(CCN2CCOCC2)CC1)N1C(=O)[C@@H](N2C(=O)OC[C@@H]2c2ccccc2)[C@H]1/C=C/c1ccccc1 [Example 112],1.34

# Next, values leading:
row,IC50 [nM],SMILES
1,1.85,"CC(C)N1CCN(C(=O)CCC(C(=O)NCc2cccc(C(F)(F)F)c2)N2C(=O)C(N3C(=O)OCC3c3ccccc3)C2C=Cc2ccccc2)CC1 (single isomer, unassigned) [Example 104]"
2,0.81,"CCCCN1CCN(C(=O)CCC(C(=O)NCc2cccc(C(F)(F)F)c2)N2C(=O)C(N3C(=O)OCC3c3ccccc3)C2C=Cc2ccccc2)CC1 (single isomer, unassigned) [Example 103]"
3,< 100,CCCCN1CCN(C(=O)C[C@@H](C(=O)NCc2cccc(C(F)(F)F)c2)N2C(=O)[C@@H](N3C(=O)OC[C@@H]3c3ccccc3)[C@H]2/C=C/c2ccccc2)CC1 [Example 59]
4,15,O=C(CC[C@@H](C(=O)NCc1cccc(C(F)(F)F)c1)N1C(=O)[C@@H](N2C(=O)OC[C@@H]2c2ccccc2)[C@H]1/C=C/c1ccccc1)NCCN1CCCCC1 [Example 87]
5,11,O=C(NCc1cccc(C(F)(F)F)c1)[C@@H](CCC(=O)N1CCN(CCc2ccccc2)CC1)N1C(=O)[C@@H](N2C(=O)OC[C@@H]2c2ccccc2)[C@H]1/C=C/c1ccccc1 [Example 136]
6,5.87,O=C(C[C@@H](C(=O)NCc1cccc(C(F)(F)F)c1)N1C(=O)[C@@H](N2C(=O)OC[C@@H]2c2ccccc2)[C@H]1/C=C/c1ccccc1)N[C@H]1CCN(Cc2ccccc2)C1 [Example 85]
7,< 50,O=C(CC[C@@H](C(=O)NCc1cccc(C(F)(F)F)c1)N1C(=O)[C@@H](N2C(=O)OC[C@@H]2c2ccccc2)[C@H]1/C=C/c1ccccc1)NC1CCN(Cc2ccccc2)CC1 [Example 107]
8,17,CCCCN1CCN(C(=O)CC[C@H](C(=O)NCc2cccc(C(F)(F)F)c2)N2C(=O)[C@@H](N3C(=O)OC[C@@H]3c3ccccc3)[C@H]2/C=C/c2ccccc2)CC1 [Example 137]
9,< 100,CCN(CC)CCN1CCN(C(=O)C[C@@H](C(=O)NCc2cccc(C(F)(F)F)c2)N2C(=O)[C@@H](N3C(=O)OC[C@@H]3c3ccccc3)[C@H]2/C=C/c2ccccc2)CC1 [Example 81]
10,~100,CN(C)CCCNC(=O)CC[C@@H](C(=O)NCc1cccc(C(F)(F)F)c1)N1C(=O)[C@@H](N2C(=O)OC[C@@H]2c2ccccc2)[C@H]1/C=C/c1ccccc1 [Example 106]
11,23,O=C(NCc1cccc(C(F)(F)F)c1)C(C(=O)NC1CCN(Cc2ccccc2)CC1)N1C(=O)[C@@H](N2C(=O)OC[C@@H]2c2ccccc2)[C@H]1/C=C/c1ccccc1 (mixture of isomers) [Example 39]
12,< 100,CN(C)CCNC(=O)CC[C@@H](C(=O)NCc1cccc(C(F)(F)F)c1)N1C(=O)[C@@H](N2C(=O)OC[C@@H]2c2ccccc2)[C@H]1/C=C/c1ccccc1 [Example 100]
13,< 25,O=C(NCc1cccc(C(F)(F)F)c1)C(C(=O)N1CCN(CCc2ccccc2)CC1)N1C(=O)[C@@H](N2C(=O)OC[C@@H]2c2ccccc2)[C@H]1/C=C/c1ccccc1 (mixture of isomers) [Example 38]
14,4.35,O=C(NCc1cccc(C(F)(F)F)c1)[C@H](CCC(=O)N1CCN(Cc2ccc3c(c2)OCO3)CC1)N1C(=O)[C@@H](N2C(=O)OC[C@@H]2c2ccccc2)[C@H]1/C=C/c1ccccc1 [Example 96]
15,~100,CN(C)CCN(Cc1ccccc1)C(=O)CC[C@@H](C(=O)NCc1cccc(C(F)(F)F)c1)N1C(=O)[C@@H](N2C(=O)OC[C@@H]2c2ccccc2)[C@H]1/C=C/c1ccccc1 [Example 108]
16,21,CC(C)N1CCN(C(=O)CC[C@H](C(=O)NCc2cccc(C(F)(F)F)c2)N2C(=O)[C@@H](N3C(=O)OC[C@@H]3c3ccccc3)[C@H]2/C=C/c2ccccc2)CC1 [Example 138]
17,< 50,O=C(NCc1cccc(C(F)(F)F)c1)[C@H](CC(=O)N1CCCN(Cc2ccccc2)CC1)N1C(=O)[C@@H](N2C(=O)OC[C@@H]2c2ccccc2)[C@H]1/C=C/c1ccccc1 [Example 82]
18,1.84,O=C(C[C@@H](C(=O)NCc1cccc(C(F)(F)F)c1)N1C(=O)[C@@H](N2C(=O)OC[C@@H]2c2ccccc2)[C@H]1/C=C/c1ccccc1)NC1CCN(Cc2ccccc2)CC1 [Example 63]
19,1.76,O=C(NCc1cccc(C(F)(F)F)c1)[C@H](CCC(=O)N1CCN(Cc2ccccc2)CC1)N1C(=O)[C@@H](N2C(=O)OC[C@@H]2c2ccccc2)[C@H]1/C=C/c1ccccc1 [Example 95]
